Values after ≈ are worked out from the molar mass of the structure shown.
Key:
[1] = system: PHA activated T cells isolated from human peripheral blood; test: Thymidine incorporation T cell proliferation assay (PHA activated); type: cell-based; settings: Homo sapiens, T-cell, 72 h, read-out: Human T cell proliferation (IC50 μg/mL)
Procedure: Heparinized blood was obtained by vein puncture aseptically from healthy volunteers (25-38 years age). Blood (10 mL) was mixed with incomplete RPMI, layered on 5 mL of Lymphocyte separation medium and centrifuged at 400 g for 20 min at room temperature. Buffy layer was collected and mixed with incomplete RPMI and centrifuged at 4° C. for 10 min at 300 g. Cells were obtained after the RBCs (if any) lysis using hypotonic solution, and washed at 4° C. for 10 min at 300 g. The cells were then suspended in complete RPMI containing 5% FBS and their concentration was adjusted to 2×10^6 cells/mL for T-cell proliferation assay.
Cell proliferation assay was conducted through standard thymidine incorporation technique. Briefly, isolated T-cells from peripheral blood of healthy individuals were plated at a concentration of 2×10^6 cells/mL in a round bottom 96-well tissue culture plates. Cells were stimulated with 7.5 μg/mL of PHA. […] The plate was then incubated for 72 hours at 37° C. in 5% CO2 incubator. After 72 hours, cultures were pulsed with 0.5 μCi/well tritiated thymidine (Amersham Pharmacia Biotech), and further incubated for 18 h. Cells were harvested onto a glass fiber filters using cell harvester (Innotech, Dottikon, Switzerland). The level of the thymidine incorporated into the cells was measured by a liquid scintillation counter (LS 6500, Beckman Coulter, Fullerton, Calif., USA). Results were expressed as mean count per minute (CPM). The inhibitory activity of compounds on T-lymphocyte proliferation was calculated using the following formula: […]

[2] = system: knee joints of arthritic rats; test: Adjuvant induced arthritis model, histopathology of knee joints (H & E); type: in vivo, Sprague Dawley rats; settings: H & E staining
Procedure: All studies were carried out using Female Sprague Dawley (SD) rats weighing 150-250 gms. Animals were kept at 21±2° C. and on a 12-h light/dark cycle, received standardized pelleted diet and tap water. Experiments were performed under the ethical guidelines of the International Association for the study of pain in conscious animals. Each group contains 12 animals with randomly distributed weights into each treatment group.
Arthritis was induced by injecting freshly prepared 100 μL of 1 mg suspension of lyophilized Mycobacterium tuberculosis H37Ra (MT H37Ra; DIFCO Laboratories, Detroit, Mich., USA), subcutaneously at the rat tail base using sterile hypodermic needle. Inoculation was carried out under anesthesia with a combination of 20 mg/kg ketamine and 5 mg/kg xylazine, injected intraperitoneally. Compound and the reference drug were administered daily, intraperitoneally using sterile syringes. The positive control received vehicle (5% DMSO+PBS) or saline only; treatment groups received test compounds (25 mg/kg), whereas reference group received indomethacin (5 mg/kg). The doses of the test compounds were selected after preliminary dose finding studies. The treatment was started on the same day after vaccination.
The animals were sacrificed at the end of the experiment and samples were taken from the knee joints. Sample fixation were done using 10% formalin following decalcification. The samples were then processed, embedded, cut, mounted and stained with hematoxylin and eosin (H & E) dye for microscopic evaluation.

SMILES: COc1c(O)cc2oc(-c3ccc(O)c(O)c3)c(O)c(=O)c2c1O [Patuletin, 3,5,7,3′,4′-pentahydroxy-6-methoxy flavones]
- IC50 [1]: 1.2 µg/mL (≈ 3.61 µM)
- histopathology of knee joints (in words) versus arthritic control rats [2]: less infiltration of lymphocytes and minimal bone destruction
- histopathology score of knee joints ([2]; normal control score 0, arthritic control score 4): 2

Reference: US20150025131A1 (priority 2013, published 2015)
